The results in this text go back to ChEMBL document CHEMBL4359904, “Structural tuning of acridones for developing anticancer agents targeting dihydrofolate reductase” (Bioorg Med Chem Lett, 2019).

Calls of active or inactive are those of the source. The calls are words filed in the database; no cut-off is given here.

In one assay the target is T1, Dihydrofolate reductase (Homo sapiens, UniProt P00374).
T1 sequence (P00374 whole entry): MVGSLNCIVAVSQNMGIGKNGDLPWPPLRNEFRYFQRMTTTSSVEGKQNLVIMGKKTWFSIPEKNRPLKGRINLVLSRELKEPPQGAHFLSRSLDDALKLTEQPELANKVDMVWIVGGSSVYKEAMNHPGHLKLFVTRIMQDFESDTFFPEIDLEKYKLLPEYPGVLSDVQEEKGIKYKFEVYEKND
Kind of assay: Inhibition of human dihydrofolate reductase using dihydrofolic acid as substrate preincubated for 1 hr in presence of NADPH followed by substrate addition by enzyme immunoassay.

For the next assay, the system named is UO-31. Briefly: Growth inhibition of human UO31 cells at 10^-5 M incubated for 48 hrs by sulforhodamine B assay relative to control. In kind it is functional. The note with it: UO-31, 48 h, read-out: GI. Background: Sulforhodamine B stains cellular protein and so reports cell mass.
The subject of another assay is MCF7. Kind of assay: Growth inhibition of human MCF7 cells at 10^-5 M incubated for 48 hrs by sulforhodamine B assay relative to control. In kind it is functional. The note with it: MCF7, 48 h, read-out: GI.
In assay [1] the test system is C6. Briefly: Antiproliferative activity against rat C6 cells assessed as decrease in cell viability measured after 48 hrs by MTT assay. The note with it: for IC50: C6, 48 h. It is filed as functional, cell-based.
The subject of assay [2] is C6. Kind of assay: Induction of morphological changes in rat C6 cells assessed as increase in total length of processes measured after 24 hrs by inverted microscopy analysis relative to control. It is filed as functional.
Assay [3] concerns C6. Briefly: Cell cycle arrest in rat C6 cells assessed as decrease in cell population at G2/M phase measured after 24 hrs by propidium iodide staining based flow cytometry analysis. In kind it is functional. (In flow cytometry, cells or beads pass a laser one at a time.)
For assay [4], the system named is C6. Briefly: Induction of morphological changes in rat C6 cells assessed as cellular senescence by measuring cell rounding with distorted morphology after 24 hrs by inverted microscopy analysis. It is filed as functional, cell-based.
The test system of assay [5] is C6. Kind of assay: Cell cycle arrest in rat C6 cells assessed as cell population at G0/G1 phase measured after 24 hrs by propidium iodide staining based flow cytometry analysis. In kind it is functional.
Assay [6] concerns C6. Briefly: Cell cycle arrest in rat C6 cells assessed as increase in cell population at sub G0 phase measured after 24 hrs by propidium iodide staining based flow cytometry analysis. In kind it is functional.
Assay [7] has as its system C6. Kind of assay: Cell cycle arrest in rat C6 cells assessed as decrease in cell population at S phase measured after 24 hrs by propidium iodide staining based flow cytometry analysis. It is filed as functional.

As usually defined, the IC50 is the concentration that gives 50% inhibition. Take `CN1C(=O)C(=Cc2cn(CC(O)Cn3c4ccccc4c(=O)c4ccccc43)c3ccccc23)C(=O)N(C)C1=O` (racemic): the IC50 on Dihydrofolate reductase turned out to be 210 nM.
For `CC1=NN(c2cccc(Cl)c2)C(=O)/C1=C\c1cn(CC(O)Cn2c3ccccc3c(=O)c3ccccc32)c2ccccc12` (racemic), the IC50 on Dihydrofolate reductase worked out at 1800 nM.
In the case of `O=C1Nc2ccccc2/C1=C/c1cn(CC(O)Cn2c3ccccc3c(=O)c3ccccc32)c2ccccc12` (racemic), the inhibition of growth at 10 µM in the assay with UO-31 is 70%; in the assay with MCF7, 55%. In the assay with C6 [1], the inhibition result was “Dose-dependent effect”. Moreover, the values for the half-inhibitory concentration (IC50) with C6 [1] and at Dihydrofolate reductase were 250 to 1500 nM and 100 nM, respectively. The Activity in the assay with C6 [2] is 16 - 18%. In addition, the inhibition entry in the assay with C6 [3] was “Active”. The result in the assay on C6 [4] was Active. In addition, the result with C6 [5] was inactive.
With `C[C@H](NC(=O)CNC(=O)c1cccc2c(=O)c3ccccc3[nH]c12)C(=O)O`, in the assay on C6 [1], the inhibition entry is “Dose-dependent effect” and the IC50 fell in the range of 250 to 1500 nM. Further, at Dihydrofolate reductase, the IC50 stood at 670 nM. The outcome in the assay on C6 [4] was Active. Also, the outcome in the assay on C6 [5] was inactive.
With `COc1cccc2c1C(=O)c1c(O)c3c(c(O)c1C2=O)C[C@@](O)(C(=O)CO)C[C@@H]3O[C@H]1C[C@H](N)[C@@H](O)[C@H](C)O1`, the outcome in the assay with C6 [6] was Active. Moreover, the inhibition entry in the assay on C6 [7] and in the assay on C6 [3] was “Active” in each case.
